The results in this text go back to patent US20130197085A1, “AGENT AND METHOD FOR STABILIZING MEMBRANE PROTEIN” (priority 2007, published 2013).

The target in test [1] is T1, wild-type BSEP (Homo sapiens, UniProt O95342, L339V).
T1 construct: expressed in transfected cells; host or cells: MDCKII cells infected with recombinant adenovirus
In words: Transcellular transport assay of [^3H] TC across MDCKII monolayer. Type of test: cell-based. As to conditions: other carboxylic acids, 1 mM, 24 hours; FIG. 10. On the procedure:
MDCKII cells were dispersed on a Transwell membrane insert (pore size: […]; Falcon) of a 24-well plate, resulting in a density of 1.5×10^5 cells/insert. Two days after the culture, the confluent cells were infected with recombinant adenoviruses having the cDNAs of wild-type, E297G and D482G BSEPs, and GFP, at 50 MOI. […] After completion of the treatment for 24 hours, a transcellular transport assay was carried out (see Mita et al., Am J Physiol Gastrointest Liver Physiol 290: G550-G556, 2006).
The apparent efflux clearance across the apical membrane (PSapical) was calculated by dividing a steady rate of the transcellular transport of [^3H] TC for 2 hours by the intracellular concentration of the [^3H] TC at the termination of the experiment (2 hours later).

In test [2] the target is T1, wild-type BSEP. Kind of test: Cell surface biotinylation method, expression on the surface of MDCKII cells. As to conditions: 1 mM, 24 hours, FIG. 9 cell surface fraction. Format: cell-based. Here is the method:
MDCKII cells were dispersed on a 6-well plate, resulting in a density of 2.5×10^5 cells/well. After completion of the culture for 24 hours, the confluent cells were infected with recombinant adenoviruses having the cDNAs of wild-type, E297G and D482G BSEPs, and GFP, at 200 MOI. After completion of the infection, the cells were cultured for 24 hours. […] After completion of the treatment for 24 hours, the cells were biotinylated (see Hayashi et al., Hepatology, 41: 916-924, 2005).

T1 sequence (O95342 whole entry L339V): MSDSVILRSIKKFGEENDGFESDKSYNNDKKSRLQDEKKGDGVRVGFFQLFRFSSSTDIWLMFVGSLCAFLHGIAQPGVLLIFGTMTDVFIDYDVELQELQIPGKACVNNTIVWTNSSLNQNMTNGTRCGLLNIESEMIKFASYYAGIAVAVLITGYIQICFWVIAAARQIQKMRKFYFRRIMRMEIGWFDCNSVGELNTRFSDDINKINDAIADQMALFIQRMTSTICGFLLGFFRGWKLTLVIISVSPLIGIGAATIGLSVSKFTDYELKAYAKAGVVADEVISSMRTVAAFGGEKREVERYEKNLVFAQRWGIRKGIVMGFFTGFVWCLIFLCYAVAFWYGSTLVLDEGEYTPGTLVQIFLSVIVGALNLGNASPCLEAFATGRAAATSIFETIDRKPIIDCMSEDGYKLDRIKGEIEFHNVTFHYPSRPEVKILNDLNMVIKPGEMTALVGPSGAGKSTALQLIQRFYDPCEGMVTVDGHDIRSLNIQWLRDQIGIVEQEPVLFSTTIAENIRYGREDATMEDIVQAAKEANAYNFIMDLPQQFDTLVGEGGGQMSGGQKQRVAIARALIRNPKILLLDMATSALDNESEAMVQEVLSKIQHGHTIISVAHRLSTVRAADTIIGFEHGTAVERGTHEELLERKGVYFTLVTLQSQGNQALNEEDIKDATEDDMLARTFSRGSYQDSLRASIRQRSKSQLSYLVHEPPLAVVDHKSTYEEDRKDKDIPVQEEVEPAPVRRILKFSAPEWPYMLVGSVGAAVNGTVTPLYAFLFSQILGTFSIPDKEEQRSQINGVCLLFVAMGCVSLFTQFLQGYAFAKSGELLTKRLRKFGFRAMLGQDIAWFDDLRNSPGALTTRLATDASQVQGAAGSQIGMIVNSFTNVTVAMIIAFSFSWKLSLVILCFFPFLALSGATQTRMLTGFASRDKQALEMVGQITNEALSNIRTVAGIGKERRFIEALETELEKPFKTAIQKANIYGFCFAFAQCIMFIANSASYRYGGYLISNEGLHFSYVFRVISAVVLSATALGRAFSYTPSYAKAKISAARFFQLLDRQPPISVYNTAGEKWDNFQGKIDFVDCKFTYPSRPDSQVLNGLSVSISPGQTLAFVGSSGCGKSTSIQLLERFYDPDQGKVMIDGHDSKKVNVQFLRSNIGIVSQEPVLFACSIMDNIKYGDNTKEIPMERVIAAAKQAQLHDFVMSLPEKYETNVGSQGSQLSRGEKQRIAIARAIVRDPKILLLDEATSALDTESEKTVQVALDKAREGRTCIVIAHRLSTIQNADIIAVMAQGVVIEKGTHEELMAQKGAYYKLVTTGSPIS

In the case of `CCCCCCCCCC(=O)O` [decanoic acid], at wild-type BSEP [1], the “efflux of [^3H] TC from the base side to the apical side (in words)” value (shortened to “efflux of [^3H] TC from the base side”) is “increased”. As to `CCCC(=O)O` [butanoic acid], the “efflux of [^3H] TC from the base side” value on wild-type BSEP [1] is on record as “increased”. As for `CCCCCCCC(=O)O` [octanoic acid], the “expression level of wild-type BSEP” value at wild-type BSEP [2] is “an increase in the expression level was observed”. Consider `CCC(=O)O` [propionic acid], for which the “efflux of [^3H] TC from the base side” value on wild-type BSEP [1] is “increased”.
